# In publication PMC9015904 (ChemMedChem, 2022):
# What was measured:
# [1] = tested on: male C57BL/6NHsd mice; conditions: mouse, in vivo
# [2] = tested on: male C57BL/6NHsd mice; conditions: mouse, in vivo; remark: listed apart in the source
# [3] = tested on: KOR; experiment: Literature binding affinity at KOR; conditions: from literature Ki values
# [4] = tested on: male C57BL/6NHsd mice; conditions: mouse, in vivo; remark: listed apart in the source
# [5] = target: MOR; conditions: cited from earlier work
# [6] = tested on: MOR; experiment: Literature binding affinity at MOR; conditions: from literature Ki values
# [7] = target: DOR; conditions: cited from earlier work
# [8] = target: KOR; conditions: cited from earlier work
structure (smiles),measurement,setting,value
COC(=O)[C@@H]1C[C@H](OC(=O)c2ccccc2)C(=O)[C@H]2[C@@]1(C)CC[C@H]1C(=O)O[C@H](c3ccoc3)C[C@]21C [Herkinorin],time spent in the open arms compared to vehicle,[1],"notable increase in open arm time, but this was not statistically significant"
same,latency to tail withdrawal compared to vehicle,[2],"Neither salvinorin A, herkinorin, nor compounds 2 or 10 demonstrated significant antinociception"
same,fold lower affinity for KOR compared to salvinorin A,[3],47 fold
same,latency to hind paw lick or flutter compared to vehicle,[4],"Neither salivinorin A, herkinorin, nor compound 10 were observed to significantly influence the latency to paw response"
same,Kd,[5]; read-out: KD [nM] (MOR),12 ± 1 nM
same,Ki,[5]; read-out: Ki (MOR),12 nM
same,fold higher affinity for MOR compared to salvinorin A,[6],≥ 83 fold
same,Kd,"[7]; read-out: KD [nM] (DOR), Literature values",1170 ± 60 nM
same,Ki,[7]; read-out: Ki (DOR),1170 nM
same,Kd,[8]; read-out: KD [nM] (KOR),90 ± 2 nM
same,Ki,[8]; read-out: Ki (KOR),90 nM
